Reference: US7829578B1, “Aromatic ketones and uses thereof” (Oregon Health & Science University, priority 2005, dated 2010)
Like-named read-outs stand apart in the source and are kept apart here.

Columns and labels:
Assay type in all cases: cell-based
[1] = test system: Murine splenic lymphocytes; experiment: MSLCs-concanavalin A induced proliferation (blastogenesis) cytotoxicity assay, Alamar Blue fluorescence; details: Table 3, 48-hr MSLCs-concanavalin A induced proliferation
[2] = test system: drug susceptible (D6) strain of Plasmodium falciparum; experiment: In vitro antimalarial MSF (SyBrGreen I fluorescence) assay, D6 strain
Experimental: (§1) Four different laboratory strains of P. falciparum were cultured in human erythrocytes by standard methods under a low oxygen atmosphere (5% O2, 5% CO2, 90% N2) in an environmental chamber. The culture medium was RPMI 1640, supplemented with 25 mM Hepes buffer, 25 mg/liter gentamicin sulfate, 45 mg/liter hypoxanthine, 10 mM glucose, 2 mM glutamine, and 0.5% Albumax II (complete medium). The parasites were maintained in fresh human erythrocytes suspended at a 2% hematocrit in complete medium at 37° C. Stock cultures were sub-passaged every 3 to 4 days by transfer of infected red cells to a flask containing complete medium and uninfected erythrocytes.
(§2) In vitro antimalarial activity of the test compounds was assessed by a fluorescence-based method described previously (Smilkstein et al., 2004, Antimicrobial Agents and Chemotherapy, Vol. 48, pgs. 1803-1806) (reference format?). The studies were set up in triplicate in 96 well plates with two-fold dilutions of each test compound across the plate in a total volume of 100 μl and at a final red blood cell concentration of 2% (v/v). Stock solutions of each drug were prepared by dissolving in DMSO at 10 mM. […] In every case, an additional determination was performed to ensure bracketing of the IC50 value by at least an order of magnitude.
(§3) Automated pipeting and dilution was carried out by a programmable Precision 2000 robotic station (Bio-Tek, Winooski, Vt.). An initial parasitemia of 0.2% was attained by addition of normal uninfected red cells to a stock culture of asynchronous parasite infected red cells (PRBC). The plates were incubated for 72 hrs at 37° C. in an atmosphere of 5% CO2, 5% O2, and 90% N2. After this period, the SyBrGreen I dye-detergent mixture (100 μl) was added and the plates were incubated at room temperature for an hour in the dark and then placed in a 96-well fluorescence plate reader (Gemini-EM, […]) for analysis with excitation and emission wavelength bands centered at 497 and 520 nm, respectively.

[3] = test system: Murine splenic lymphocytes; experiment: MSLCs-concanavalin A induced proliferation (blastogenesis) cytotoxicity assay, Alamar Blue fluorescence; details: Table 2, 24-hr MSLCs-concanavalin A induced proliferation
Experimental: *Data are the average of at least 3 independent experiments, each performed in triplicate with the aid of a Precision 2000 robotic pipeting station. IC50 values were determined by the MSF assay. […] MSLCs=Murine splenic lymphocytes. Cytotoxicity was determined using a 24-hr MSLCs-concanavalin A induced proliferation assay using the Alamar Blue fluorescence method. IVTI=in vitro therapeutic index calculated from the ratio of IC50 values based on the cytotoxicity observed in the blastogenesis assay and the antimalarial potency against the D6 strain of P. falciparum. NT=not tested.
*Data are the average of at least 3 independent experiments, each performed in triplicate with the aid of a Precision 2000 robotic pipeting station. IC50 values were determined by the MSF assay (Smilkstein et al., AAC, 2004). MSLCs=Murine splenic lymphocytes. Cytotoxicity was determined using a 48-hr MSLCs-concanavalin A induced proliferation assay using the Alamar Blue fluorescence method. IVTI=in vitro therapeutic index calculated from the ratio of IC50 values of the cytotoxicity observed in the blastogenesis assay and antimalarial potency against the D6 strain of P. falciparum. NA=not applicable; ND=not determined.

[4] = test system: multi-drug resistant (Dd2) strain of Plasmodium falciparum; experiment: In vitro antimalarial MSF (SyBrGreen I fluorescence) assay, Dd2 strain
Experimental: as §1, §2, §3

[5] = Table 3, MSF assay, read-out: D6 IC50
[6] = Table 2, 72 hrs, average of at least 3 experiments
[7] = Table 2, MSF assay, 72 hrs, average of at least 3 experiments, read-out: D6 IC50
[8] = Plasmodium falciparum, D6, Table 4, MSF assay, read-out: D6 IC50
[9] = Mus musculus, Splenic lymphocyte
[10] = Plasmodium falciparum, D6, Table 3, MSF assay, read-out: D6 IC50
[11] = Plasmodium falciparum, D6, strain not given, read-out: IC50 value of parent compound used for comparison

CCOC(=O)c1c[nH]c2cc(OC)ccc2c1=O [compound 41]
IC50 [1]: > 25 µM | IC50 [2, 5]: 440 nM

O=c1c2ccccc2[nH]c2c(OCCCCCC(F)(F)F)cccc12 [compound 27]
IC50 [3]: > 25 µM | IC50 [4, 6]: 515 nM | IC50 [2, 7]: 446 nM

O=C1C=C(O)C(=O)c2ccccc21 [compound 47]
IC50 [2, 8]: 1800 nM

O=c1c2ccccc2[nH]c2ccc(OCCCCCC(F)(F)F)cc12 [compound 25]
IC50 [3]: > 25 µM | IC50 [4, 6]: 49 nM | IC50 [2, 7]: 36 nM

O=c1c2ccc(OCCCCCC(F)(F)F)cc2[nH]c2cc([N+](=O)[O-])ccc12 [compound 33]
IC50 [3]: > 25 µM | IC50 [4, 6]: 5.8 nM | IC50 [2, 7]: 3.2 nM

O=c1c2ccc(Cl)cc2[nH]c2cc(OCCCCC(F)(F)F)ccc12 [compound 18]
IC50 [3]: > 25 µM | IC50 [4, 6]: 0.5 nM | IC50 [2, 7]: 0.3 nM

O=C1C=C(OCCCCCC(F)(F)F)C(=O)c2ccccc21 [compound 12]
IC50 [3]: 5.6 µM | IC50 [4, 6]: 95 nM | IC50 [2, 7]: 67 nM

COc1ccc2[nH]c3cc(Cl)ccc3c(=O)c2c1 [compound 7]
IC50 [3]: > 25 µM | IC50 [4, 6]: 65 nM | IC50 [2, 7]: 45 nM

O=c1c2ccc(Cl)cc2[nH]c2cc(OCCCCCCCCCCC(F)(F)F)ccc12 [compound 30]
IC50 [3]: > 25 µM | IC50 [4, 6]: 0.025 nM | IC50 [2, 7]: 0.023 nM

O=c1c2ccc(Cl)cc2[nH]c2cc(OCCCCCCCCO)ccc12 [compound 29]
IC50 [3]: > 25 µM | IC50 [4, 6]: 3.5 nM | IC50 [2, 7]: 2.2 nM

O=c1c2ccc(Cl)cc2oc2cc(OCCCCC(F)(F)F)ccc12 [compound 19]
IC50 [3]: > 25 µM | IC50 [4, 6]: 18000 nM | IC50 [2, 7]: 16000 nM

COc1ccc2c(=O)c(CCCCCCCCCCC(F)(F)F)c(C)[nH]c2c1 [compound 45]
IC50 [1]: > 25 µM | IC50 ([4]; Table 3): 0.36 nM | IC50 [2, 5]: 0.2 nM

COc1ccc2c(=O)c(C(=O)O)c[nH]c2c1 [compound 42]
IC50 [1, 9]: > 25 µM | IC50 [2, 10]: > 2500 nM

O=c1c2ccc(O)cc2oc2cc(O)ccc12 [No. 52, 3,6-dihydroxyxanthone, reference compound]
IC50 ([2]; Plasmodium falciparum, D6, read-out: IC50 value of parent compound used for comparison): > 100000 nM

O=c1c2ccc(Cl)cc2[nH]c2cc(OCCCCCCl)ccc12 [compound 16]
IC50 [3]: > 25 µM | IC50 [4, 6]: 13 nM | IC50 [2, 7]: 12 nM

COc1ccc2nc3cc(Cl)ccc3c(N)c2c1 [compound 9]
IC50 [3]: 0.45 µM | IC50 [4, 6]: 42 nM | IC50 [2, 7]: 18 nM

OC(c1cc(C(F)(F)F)nc2c(C(F)(F)F)cccc12)C1CCCCN1 (racemic) [compound 38]
IC50 [3]: 4.8 µM | IC50 [4, 6]: 8.8 nM | IC50 [2, 7]: 5.9 nM

O=c1c2ccc(O)cc2[nH]c2cc(Cl)ccc12 [No. 14, 3-hydroxy-6-chloroacridone]
IC50 [2, 11]: > 2200 nM

O=c1c2ccc(Cl)cc2[nH]c2ccc(OCCCCCC(F)(F)F)cc12 [compound 22]
IC50 [3]: > 25 µM | IC50 [4, 6]: 15 nM | IC50 [2, 7]: 10 nM

CCN(CC)CCCC(C)Nc1ccnc2cc(Cl)ccc12 (racemic) [compound 36]
IC50 [3]: 3.9 µM | IC50 [4, 6]: 102 nM | IC50 [2, 7]: 7.8 nM

O=c1c2ccc(Cl)cc2[nH]c2ccc(O)cc12 [compound 8]
IC50 [3]: 24 µM | IC50 [4, 6]: 260 nM | IC50 [2, 7]: 190 nM

COc1ccc2c(=O)cc(C)[nH]c2c1 [compound 43]
IC50 [1, 9]: > 25 µM | IC50 ([4]; Plasmodium falciparum, DD2, Table 3): 13700 nM | IC50 [2, 10]: 7000 nM

O=C1C=C(OCCCCC(F)(F)F)C(=O)c2ccccc21 [compound 35]
IC50 [3]: 14 µM | IC50 [4, 6]: 35 nM | IC50 [2, 7]: 32 nM

O=c1c2ccc(O)cc2oc2cc(O)ccc12 [compound 52]
IC50 ([2]; Plasmodium falciparum, D6, read-out: D6 IC50, nM): > 100000 nM

O=c1c2ccc(Cl)cc2[nH]c2cc(OCCCCC(F)(C(F)(F)F)C(F)(F)F)ccc12 [compound 24]
IC50 [3]: > 25 µM | IC50 [2, 7]: 0.0015 nM

O=c1c2ccc(O)cc2oc2cc(OCCCCCC(F)(F)F)ccc12 [compound 11]
IC50 [3]: > 25 µM | IC50 [4, 6]: 40 nM | IC50 [2, 7]: 46 nM

O=c1c2ccc(Cl)cc2[nH]c2cc(OCCCCCCCC(F)(F)F)ccc12 [compound 28]
IC50 [3]: > 25 µM | IC50 [4, 6]: 0.17 nM | IC50 [2, 7]: 0.16 nM

O=c1c2ccccc2[nH]c2cc(OCCCCCC(F)(F)F)ccc12 [compound 26]
IC50 [3]: > 25 µM | IC50 [4, 6]: 0.015 nM | IC50 [2, 7]: 0.43 nM

O=C1c2ccccc2Cc2ccc(OCCCCCC(F)(F)F)cc21 [compound 55]
IC50 [2, 8]: 510 nM

Cn1c2cc(Cl)ccc2c(=O)c2ccc(OCCCCC(F)(F)F)cc21 [compound 31]
IC50 [3]: > 25 µM | IC50 [4, 6]: 3500 nM | IC50 [2, 7]: 4000 nM

O=c1c2ccccc2[nH]c2cc(OCCCCC(F)(F)F)ccc12 [compound 20]
IC50 [3]: > 25 µM | IC50 [4, 6]: 0.3 nM | IC50 [2, 7]: 0.5 nM

O=c1c2ccc(Cl)cc2[nH]c2cc(OCCCCC(F)(F)C(F)(F)F)ccc12 [compound 23]
IC50 [3]: > 25 µM | IC50 [4, 6]: 0.02 nM | IC50 [2, 7]: 0.02 nM

O=C1C=C(CCCCCC(F)(F)F)C(=O)c2ccccc21 [compound 49]
IC50 [2, 8]: 823 nM

Nc1ccc2c(=O)c3ccc(OCCCCCC(F)(F)F)cc3[nH]c2c1 [compound 34]
IC50 [3]: > 25 µM

O=c1c2ccccc2[nH]c2cc(O)ccc12 [compound 6]
IC50 [3]: > 25 µM | IC50 [4, 6]: 504 nM | IC50 [2, 7]: 2000 nM

COc1ccc2c(=O)cc[nH]c2c1 [compound 40]
IC50 [1, 9]: > 25 µM | IC50 [2, 10]: > 2500 nM

O=C1c2ccccc2Cc2ccc(O)cc21 [compound 54]
IC50 [2, 8]: 8300 nM

COc1ccc2c(=O)cc(C)[nH]c2c1 [No. 43, 2-methyl-7-methoxy-4-(1H)-quinolone]
IC50 [2, 11]: > 2500 nM

O=C1C=C(O)C(=O)c2ccccc21 [No. 47, 2-hydroxy-1,4-naphthoquinone, reference compound]
IC50 [2, 11]: ~1800 nM

O=c1c2ccc(O)cc2[nH]c2cc(Cl)ccc12 [compound 14]
IC50 [3]: 14 µM | IC50 [4, 6]: 9200 nM | IC50 [2, 7]: 2200 nM

CC1CCC2C(C)C(=O)OC3OC4(C)CCC1C32OO4 (centres unmarked) [compound 39]
IC50 [3]: > 25 µM | IC50 [4, 6]: 0.9 nM | IC50 [2, 7]: 0.65 nM

O=c1c2ccc(Cl)cc2[nH]c2ccc(OCCCCCBr)cc12 [compound 10]
IC50 [3]: 12 µM | IC50 [4, 6]: 152 nM | IC50 [2, 7]: 70 nM

O=c1c2ccc(Cl)cc2[nH]c2cc(OCCCCCC(F)(F)F)ccc12 [compound 21]
IC50 [3]: > 25 µM | IC50 [4, 6]: 0.07 nM | IC50 [2, 7]: 0.06 nM

O=c1c2ccc(O)cc2oc2cc(OCCCCCC(F)(F)F)ccc12 [compound 53]
IC50 [2, 8]: 780 nM

C=CC1CN2CCC1CC2C(O)c1ccnc2ccc(OC)cc12 (centres unmarked) [compound 37]
IC50 [3]: 23 µM | IC50 [4, 6]: 68 nM | IC50 [2, 7]: 11 nM

Nc1c2ccc(Cl)cc2nc2cc(OCCCCCC(F)(F)F)ccc12 [compound 32]
IC50 [3]: 0.25 µM | IC50 [4, 6]: 10 nM | IC50 [2, 7]: 2.9 nM

O=c1c2ccc(Cl)cc2[nH]c2cc(OCCCC(F)(F)F)ccc12 [compound 17]
IC50 [3]: > 25 µM | IC50 [4, 6]: 1.2 nM | IC50 [2, 7]: 1 nM

COc1ccc2c(=O)c3ccc(Cl)cc3[nH]c2c1 [compound 13]
IC50 [3]: > 25 µM | IC50 [4, 6]: 192 nM | IC50 [2, 7]: 76 nM

O=C1C=C(OCCCCC(F)(F)F)C(=O)c2ccccc21 [compound 48]
IC50 [2, 8]: 51.1 nM

CCOC(=O)c1c[nH]c2cc(OCCCCCC(F)(F)F)ccc2c1=O [compound 46]
IC50 [1]: > 25 µM | IC50 ([4]; Table 3): 1.2 nM | IC50 [2, 5]: 1.2 nM

O=C1c2ccc(OCCCCCC(F)(F)F)cc2C(=O)c2ccc(O)cc21 [compound 15]
IC50 [3]: > 25 µM | IC50 [4, 6]: 54 nM | IC50 [2, 7]: 27 nM

O=c1c2ccccc2[nH]c2ccc(O)cc12 [compound 5]
IC50 [3]: > 25 µM | IC50 [4, 6]: 4400 nM | IC50 [2, 7]: 9000 nM
